Earlier results, collected in patent US10213490B2, “Compositions for providing agents that degrade in water” (VIRUN, INC., priority 2015, dated 2019).

glutathione remaining (stored in water at pH 2 and 7, after 7 days): approximately 65%
glutathione degraded (stored in water, pH 3 to 6, 7 days): 20%
Structure (SMILES): N[C@@H](CCC(=O)N[C@@H](CS)C(=O)NCC(=O)O)C(=O)O [glutathione]
